Results on one molecule are retold here after patent publication US20230104487A1, “11-(4-CHLOROPHENYL)-4-(2,3-DIHYDRO-1H-INDOLE-1-CARBONYL)-3,11-DIMETHYL-5,10,DIOXATRICYCLO[7.4.0.0,2,6,]TRIDECA-1,3,6,8-TETRAEN-13-ONE AND DERIVATIVES AS DESTABILIZER OF CRY1 FOR THE TREATMENT OF CIRCADIAN RHYTHM ASSOCIATED DISEASES AND DISORDERS” (KOC UNIVERSITESI, priority 2019, published 2023).

For one assay, the system named is C57BL/6J mice. Kind of assay: Circadian behavioral analysis (locomotor activity). Type of assay: in vivo, mouse. Particulars: constant dark conditions. The procedure: C57BL/6J mice were synchronized 10 days under 12 h:12 h light-dark cycles. After 10 days mice were treated with intraperitoneal dose of 60 mg/kg FORMULA I or vehicle for 14 days and kept under constant darkness (n=12). Locomotor activity of mice were recorded for additional 10-days without any injection. During these days locomotor activity of mice were recorded by ClockLab (Actimetrics) software program. FIG. 7A Representative locomotor activity of mice injected with vehicle (n=5) or FIG. 7B FORMULA I (n=7). FIG. 7C Period and FIG. 7D amplitude of mice under different conditions and injected with vehicle or FORMULA I. Period and amplitude values were calculated by using ClockLab Analysis (Actimetrics) program. Statistical significance was evaluated using one-way analysis of variance (ANOVA), followed by a Tukey's multiple comparisons test using Prism software (GraphPad Software)
Mice were housed in individual cages within a temperature- and humidity-controlled, light-tight enclosure. Each cage contained a running wheel. Food and water were allowed ad libitum. Animals were entrained to a 12:12 h L:D cycle for ≥2 weeks before being released into constant darkness. Then, vehicle (n=5) and FORMULA I (n=6) administered to animals for 5 days and then animals were kept under constant conditions for more than 2 weeks. […]

The target of another assay is T1, CRY1 (Mus musculus, UniProt P97784).
T1 sequence (P97784 1-606): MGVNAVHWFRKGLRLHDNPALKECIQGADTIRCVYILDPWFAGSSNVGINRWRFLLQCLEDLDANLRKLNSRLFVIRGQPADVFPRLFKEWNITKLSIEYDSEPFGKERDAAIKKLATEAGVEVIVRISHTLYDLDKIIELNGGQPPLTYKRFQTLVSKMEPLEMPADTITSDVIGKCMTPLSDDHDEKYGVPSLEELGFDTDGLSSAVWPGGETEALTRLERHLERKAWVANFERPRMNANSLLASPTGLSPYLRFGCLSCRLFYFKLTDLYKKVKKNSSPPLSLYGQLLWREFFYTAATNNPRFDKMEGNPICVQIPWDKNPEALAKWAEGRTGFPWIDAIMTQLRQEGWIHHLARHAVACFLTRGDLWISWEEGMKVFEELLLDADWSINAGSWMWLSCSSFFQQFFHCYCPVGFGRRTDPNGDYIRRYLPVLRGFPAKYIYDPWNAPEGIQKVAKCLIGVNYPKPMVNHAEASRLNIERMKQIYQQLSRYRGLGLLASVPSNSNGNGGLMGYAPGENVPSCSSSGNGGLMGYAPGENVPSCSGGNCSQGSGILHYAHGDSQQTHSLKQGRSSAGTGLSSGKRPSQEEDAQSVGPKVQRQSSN
Description: CRY1 level in mouse liver (whole cell lysate, cytosolic and nuclear fraction). It counts as in vivo. Details: from tissue; host or cells: liver of C57BL/6J mice. Particulars: 25 and 50 mg/kg i.p., 6 h. The procedure:
FIGS. 5A-5G are an illustration of FORMULA I decreased the nuclear CRY1 in mice liver. FORMULA I (25 mg/kg or 50 mg/kg) or vehicle intraperitoneally administered to C57BL/6J mice. 6 h after the treated mice were sacrificed (n=3). […] FIGS. 5A-5B show an effect of FORMULA I in WCL. FIG. 5C-5D show an effect of FORMULA I in cytosolic fraction. FIGS. 5E-5F show an effect of FORMULA I in nuclear fraction of muce liver. […] (Data represent the mean±SEM, n=3 (with duplicates in RT-PCR) *: p<0.05 versus control by student t-test).
Cells were lysed in RIPA buffer (50 mM Tris, 150 mM NaCl, 1% Triton-X, 0.1% SDS) with fresh Protease inhibitor cocktail (PIC). After centrifugation at 13000 rpm for 15 minutes at 4° C., supernatant was used to determine the protein amount using Pierce Protein Assay (Thermo Scientific) according to the manufacturer's instruction. Mice liver samples were homogenized and lysed with Dounce homogenizer and RIPA buffer. After homogenization samples were incubated 10 minutes on ice. After centrifugation 13000 rpm 15 minutes at 4° C. supernatant was used for the whole cell lysate. Subcellular fractionation of liver samples: Liver samples were homogenized with cytosolic lysis buffer (10 mM HEPES pH 7.9, 10 mM KCl, 0.1 mM EDTA, 0.05% NP40, proteasome inhibitor) by pipetting 40 times with a cut tip. Then samples were incubated 10 minutes on ice and centrifuged for 3 minutes at 3000 rpm at 4° C. Supernatant was saved in a new tube, and pellet was processed for the nuclear fraction. Supernatant was centrifuged at 13000 rpm for 3 minutes at 4° C. where new supernatant saved as the cytosolic fraction. […] ECL buffer system (Advansta WesternBright) was used to visualize HRP chemi-luminescence via BioRad ChemiDoc Touch visualizer. […]
Since CRYs are stabilized and degraded differently in cytosolic and nuclear compartments, we further analyzed the level of CRY1 in the cytosolic and nuclear fraction of the mouse liver. […]

“Also recorded” adds a separate entry of the source.

`Cc1c(C(=O)N2CCc3ccccc32)oc2ccc3c(c12)C(=O)CC(C)(c1ccc(Cl)cc1)O3` (centres unmarked) [FORMULA I, 11-(4-chlorophenyl)-4-(2,3-dihydro-1H-indole-1-carbonyl)-3,11-dimethyl-5,10,dioxatricyclo[7.4.0.0,2,6,]trideca-1,3,6,8-tetraen-13-one]: in the assay with C57BL/6J mice, the “amplitude of locomotor activity” value was “statistically significant impact on the amplitude” and the “shortening of locomotor period length versus vehicle” value is recorded as “approximately 14 min”. At CRY1, the “CRY1 level in cytosolic fraction of liver” value is “not statistically significant compared to controls; also recorded: slightly decreased the CRY1 levels”, the “CRY1 level in nuclear fraction of liver” value is “significantly low compared to controls in dose dependent manner; also recorded: decreased the nuclear CRY1 level significantly; also recorded: selectively decrease CRY1 level in the nucleus” and the “CRY1 level in whole cell lysate of liver” value is “slight decrease in CRY1 levels; also recorded: slightly decreased the CRY1 levels”.
